Consider three compounds from US20030147936A1, “Prostatic hormonal implants treatment of prostate cancer” (priority 2002, published 2003).

Test [1] deals with recurrent poor prognostic prostate cancer. Here is the method:
Since this hormonal treatment was rendered at recurrence after radiation therapy, it is termed as secondary hormonal treatment.
Later it was reduced to 1 mg per day.

Test [2] relates to recurrent prostate cancer. As to the kind of experiment: Serum acid phosphatase of the same patient on oral DES. The class given is in vivo, human.
Test [3] has as its system hormone-refractory prostate cancer. The note with it: in vivo; cited from earlier work.
For test [4], the system named is prostate with cancer, prostatic volume greater than 50 cc. The note with it: before interstitial radioactive seed implant; cited from earlier work.
The subject of test [5] is rat breast tumor. In words: Implantation of iodoestradiol adsorbed sponges to rat breast tumor. The class given is in vivo. The note with it: sponges implanted to rat breast tumor; unpublished data. From the text: In U.S. Pat. No. 4,321,208 (31; Sahadevan V: Preparation of directly iodinated steroid hormones and related compounds, U.S. Pat. No. 4,321,208; 1982) this inventor has described the methods for preparation of iodinated steroid hormones including the estradiol as early as in 1976, the time of filing the patent application.

Test [6] addresses estrogen receptor sites (Homo sapiens, UniProt P03372). The settings on record: cited from earlier work.
Test [7] concerns estrogen antiserum. The settings on record: cited from earlier work.
[8] abbreviates: DES 1 mg three times per day by mouth, four years of follow-ups.
Setting [9] is: June 10, 1993, pretreatment value, before DES was started, table dose 3 mg 3× daily.
The mark [10] stands for this setting: September 15, 1993, DES 3 mg 3× daily (table).

Where two headings read alike, the source gives them in different places.

Sequence of estrogen receptor sites (P03372 whole entry): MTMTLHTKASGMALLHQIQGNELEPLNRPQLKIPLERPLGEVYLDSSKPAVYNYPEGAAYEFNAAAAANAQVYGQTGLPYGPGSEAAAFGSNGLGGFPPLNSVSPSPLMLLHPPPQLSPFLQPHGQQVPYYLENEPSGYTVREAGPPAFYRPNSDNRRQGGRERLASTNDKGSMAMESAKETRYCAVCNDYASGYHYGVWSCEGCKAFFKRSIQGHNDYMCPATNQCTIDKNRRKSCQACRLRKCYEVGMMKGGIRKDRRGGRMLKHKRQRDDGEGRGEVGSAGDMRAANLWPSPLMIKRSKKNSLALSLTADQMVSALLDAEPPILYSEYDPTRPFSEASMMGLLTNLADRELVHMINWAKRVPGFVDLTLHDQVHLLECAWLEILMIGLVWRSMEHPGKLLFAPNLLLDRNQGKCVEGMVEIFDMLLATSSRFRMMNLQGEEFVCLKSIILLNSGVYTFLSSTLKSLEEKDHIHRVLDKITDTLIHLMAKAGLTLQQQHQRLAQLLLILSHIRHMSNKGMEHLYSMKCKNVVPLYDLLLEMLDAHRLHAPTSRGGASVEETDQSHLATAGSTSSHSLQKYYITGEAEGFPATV

In the case of `CC/C(=C(/CC)c1ccc(O)cc1)c1ccc(O)cc1` [DES, diethylstilbestrol], the “PSA reduced to” value is “less than 1 ng per ml” in test [1] (1 mg DES three times a day, patients with serum PSA exceeding over 300 ng per ml) and 0.1 ng per ml in test [1] (DES oral dose of 1 mg daily, 363 ng per ml before treatment). For the same compound, the PSA is above 0.1 ng/mL in test [1] (August 4, 1996, DES 1 mg daily); above 0.1 ng/mL in test [1] (August 5, 1997, DES 1 mg daily); 363.0 ng/mL in test [1] (setting [9]); above 0.1 ng/mL in test [1] (June 13, 1994, DES 3 mg 3× daily (table)); above 0.1 ng/mL in test [1] (May 3, 1995, DES 3 mg 3× daily (table)); 38.4 ng/mL in test [1] (September 7, 1993, DES 3 mg 3× daily (table)). For the same compound, the PSA is 4.5 ng/mL in test [1] (setting [10]) and above 0.1 ng/mL in test [1] (September 26, 1994, DES 3 mg 3× daily (table)). Moreover, the “serum PSA nadir value during treatment with DES” value in test [1] (setting [8]) is 0.1 ng per ml. Further, the “PSA value, maintained at low nadir” value in test [1] (continued DES alone, 1 mg three times a day, later 1 mg per day, maintained for four years, pretreatment 363 ng per ml) is “less than 0.1 ng”. Further, the “decrease of serum PSA (FIG. 1)” value in test [1] (from pretreatment 363 ng per ml, rapidly) is “normal level”. In test [2] (setting [8]), the “acid phosphatase nadir value during treatment with DES” value was 0.3 international unit. For the same compound, the results for the “Acid Phosphatase” value in test [2] (setting [9]) and in test [2] (setting [10]) were 48.0 iu and 0.3 iu, respectively. Besides, the “decrease of serum acid phosphatase (FIG. 3)” value in test [2] (from pretreatment 48 international units per ml, rapidly) is “normal level”. Further, the “serum acid phosphatase level” value in test [2] (three months after DES 1 mg three times a day, pretreatment 48.0) is recorded as < 0.3 international units per ml. Besides, the “effectiveness in hormone-refractory prostate cancer” value in test [3] is “effective”.

Consider LHRH, for which, in test [4], the “reduction of the initial prostatic volume” value is on record as “about 40 per cent”.

With iodoestradiol, the tumor regression result in test [5] is “excellent tumor regression”. In test [6], the “binding to estrogen receptor sites” value is on record as “binds”. The “binding to estrogen antiserum” value in test [7] is “binds”.
